Key:
Assay in all cases: relative viability (nuclei count vs DMSO), 5 days (fraction); higher = more cells survive
201T = test system: 201T
Outline: (§1)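 Cells from lung cancer lines were seeded into 1536-well plates and, one day later, dosed by pin tool. Treatments were either a single drug or a fixed dose of an anchor drug with five library-drug doses (not always all listed) in √10 steps. After 5 days, nuclei were stained in a one-step fixation (final 0.05% Triton X-100, 1% formaldehyde, 1 ug/ml Hoechst) and counted on 4× images, and relative viability is the treated-to-vehicle nuclei ratio, as the median of duplicate plates.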

A-427 = test system: A-427
Outline: as §1

ABC-1 = test system: ABC-1
Outline: as §1

BEN = test system: BEN
Outline: as §1

CAL-12T = test system: CAL-12T
Outline: as §1

H3255 = test system: H3255
Outline: as §1

LC-2-ad = test system: LC-2-ad
Outline: as §1

LCLC-97TM1 = test system: LCLC-97TM1
Outline: as §1

NCI-H1650 = test system: NCI-H1650
Outline: as §1

NCI-H1651 = test system: NCI-H1651
Outline: as §1

NCI-H1792 = test system: NCI-H1792
Outline: as §1

NCI-H1915 = test system: NCI-H1915
Outline: as §1

NCI-H1944 = test system: NCI-H1944
Outline: as §1

NCI-H2023 = test system: NCI-H2023
Outline: as §1

NCI-H2087 = test system: NCI-H2087
Outline: as §1

NCI-H441 = test system: NCI-H441
Outline: as §1

NCI-H460 = test system: NCI-H460
Outline: as §1

NCI-H520 = test system: NCI-H520
Outline: as §1

NCI-H596 = test system: NCI-H596
Outline: as §1

NCI-H650 = test system: NCI-H650
Outline: as §1

NCI-H661 = test system: NCI-H661
Outline: as §1

NCI-H727 = test system: NCI-H727
Outline: as §1

PC-3 [JPC-3] = test system: PC-3 [JPC-3]
Outline: as §1

C=C1C(=O)O[C@@H](CCCCCCCC)[C@@H]1C(=O)O [C-75] + CCNC(=O)c1noc(-c2cc(C(C)C)c(O)cc2O)c1-c1ccc(CN2CCOCC2)cc1 [Luminespib] (partner 0.01 µM) was tested, and the relative viability (201T; first compound 0.08 µM) was 1.07, the relative viability (201T; first compound 0.253 µM) was 1.08 and the relative viability (201T; first compound 0.8 µM) was 1.07. It also gave a relative viability (201T; first compound 2.53 µM) of 1.04, a relative viability (201T; first compound 8 µM) of 1.06 and a relative viability (A-427; first compound 0.08 µM) of 0.931. It also gave a relative viability (A-427; first compound 0.253 µM) of 0.788, a relative viability (A-427; first compound 0.8 µM) of 0.922 and a relative viability (A-427; first compound 2.53 µM) of 0.842. It also gave a relative viability (A-427; first compound 8 µM) of 0.703, a relative viability (ABC-1; first compound 0.253 µM) of 0.389 and a relative viability (ABC-1; first compound 0.8 µM) of 0.51. For the same molecule, the relative viability (ABC-1; first compound 2.53 µM) was 0.364, the relative viability (ABC-1; first compound 8 µM) was 0.378 and the relative viability (BEN; first compound 0.08 µM) was 0.351. The relative viability (BEN; first compound 0.253 µM) was 0.302, the relative viability (BEN; first compound 0.8 µM) was 0.302 and the relative viability (BEN; first compound 8 µM) was 0.181. It also gave a relative viability (CAL-12T; first compound 0.08 µM) of 0.898, a relative viability (CAL-12T; first compound 0.253 µM) of 0.365 and a relative viability (CAL-12T; first compound 0.8 µM) of 0.178. The relative viability (CAL-12T; first compound 2.53 µM) was 0.405, the relative viability (CAL-12T; first compound 8 µM) was 0.376 and the relative viability (H3255; first compound 0.08 µM) was 0.935. For the same molecule, the relative viability (H3255; first compound 0.253 µM) was 1.02, the relative viability (H3255; first compound 0.8 µM) was 0.794 and the relative viability (H3255; first compound 2.53 µM) was 0.723. It also gave a relative viability (H3255; first compound 8 µM) of 0.977, a relative viability (LC-2-ad; first compound 0.08 µM) of 1.06 and a relative viability (LC-2-ad; first compound 0.253 µM) of 0.801. For the same molecule, the relative viability (LC-2-ad; first compound 0.8 µM) was 0.95, the relative viability (LC-2-ad; first compound 2.53 µM) was 0.797 and the relative viability (LC-2-ad; first compound 8 µM) was 0.91. For the same molecule, the relative viability (LCLC-97TM1; first compound 0.08 µM) was 0.731, the relative viability (LCLC-97TM1; first compound 0.253 µM) was 0.808 and the relative viability (LCLC-97TM1; first compound 0.8 µM) was 0.852. For the same molecule, the relative viability (LCLC-97TM1; first compound 2.53 µM) was 0.452, the relative viability (LCLC-97TM1; first compound 8 µM) was 0.801 and the relative viability (NCI-H1650; first compound 0.08 µM) was 0.215. The relative viability (NCI-H1650; first compound 0.253 µM) was 0.194, the relative viability (NCI-H1650; first compound 2.53 µM) was 0.141 and the relative viability (NCI-H1650; first compound 8 µM) was 0.211. It also gave a relative viability (NCI-H1651; first compound 0.08 µM) of 0.817, a relative viability (NCI-H1651; first compound 0.253 µM) of 0.939 and a relative viability (NCI-H1651; first compound 0.8 µM) of 0.829. The relative viability (NCI-H1651; first compound 2.53 µM) was 0.672, the relative viability (NCI-H1651; first compound 8 µM) was 0.934 and the relative viability (NCI-H1792; first compound 0.08 µM) was 0.423. The relative viability (NCI-H1792; first compound 0.253 µM) was 0.484, the relative viability (NCI-H1792; first compound 0.8 µM) was 0.514 and the relative viability (NCI-H1792; first compound 2.53 µM) was 0.331. It also gave a relative viability (NCI-H1792; first compound 8 µM) of 0.522, a relative viability (NCI-H1915; first compound 0.08 µM) of 0.694 and a relative viability (NCI-H1915; first compound 0.253 µM) of 0.768. It also gave a relative viability (NCI-H1915; first compound 0.8 µM) of 0.798, a relative viability (NCI-H1915; first compound 2.53 µM) of 0.717 and a relative viability (NCI-H1915; first compound 8 µM) of 0.677. For the same molecule, the relative viability (NCI-H1944; first compound 0.08 µM) was 0.777, the relative viability (NCI-H1944; first compound 0.253 µM) was 0.642 and the relative viability (NCI-H1944; first compound 0.8 µM) was 0.684. For the same molecule, the relative viability (NCI-H1944; first compound 8 µM) was 0.761, the relative viability (NCI-H2023; first compound 0.08 µM) was 0.746 and the relative viability (NCI-H2023; first compound 0.253 µM) was 0.921. The relative viability (NCI-H2023; first compound 0.8 µM) was 0.706, the relative viability (NCI-H2023; first compound 8 µM) was 0.696 and the relative viability (NCI-H2087; first compound 0.08 µM) was 0.162. The relative viability (NCI-H2087; first compound 0.253 µM) was 0.218, the relative viability (NCI-H2087; first compound 0.8 µM) was 0.141 and the relative viability (NCI-H2087; first compound 2.53 µM) was 0.166. For the same molecule, the relative viability (NCI-H2087; first compound 8 µM) was 0.217, the relative viability (NCI-H441; first compound 0.08 µM) was 0.329 and the relative viability (NCI-H441; first compound 0.253 µM) was 0.453. It also gave a relative viability (NCI-H441; first compound 0.8 µM) of 0.295, a relative viability (NCI-H441; first compound 2.53 µM) of 0.518 and a relative viability (NCI-H441; first compound 8 µM) of 0.305. For the same molecule, the relative viability (NCI-H460; first compound 0.08 µM) was 0.0308, the relative viability (NCI-H460; first compound 0.253 µM) was 0.0239 and the relative viability (NCI-H460; first compound 0.8 µM) was 0.0329. For the same molecule, the relative viability (NCI-H460; first compound 8 µM) was 0.0319, the relative viability (NCI-H520; first compound 0.08 µM) was 0.233 and the relative viability (NCI-H520; first compound 0.253 µM) was 0.214. It also gave a relative viability (NCI-H520; first compound 0.8 µM) of 0.217, a relative viability (NCI-H520; first compound 2.53 µM) of 0.208 and a relative viability (NCI-H520; first compound 8 µM) of 0.331. For the same molecule, the relative viability (NCI-H596; first compound 0.08 µM) was 0.854, the relative viability (NCI-H596; first compound 0.253 µM) was 0.968 and the relative viability (NCI-H596; first compound 0.8 µM) was 0.937. It also gave a relative viability (NCI-H596; first compound 2.53 µM) of 0.939, a relative viability (NCI-H596; first compound 8 µM) of 0.957 and a relative viability (NCI-H650; first compound 0.08 µM) of 0.685. For the same molecule, the relative viability (NCI-H650; first compound 0.253 µM) was 0.737, the relative viability (NCI-H650; first compound 0.8 µM) was 0.818 and the relative viability (NCI-H650; first compound 2.53 µM) was 0.684. It also gave a relative viability (NCI-H650; first compound 8 µM) of 0.788, a relative viability (NCI-H661; first compound 0.08 µM) of 0.946 and a relative viability (NCI-H661; first compound 0.253 µM) of 0.905. The relative viability (NCI-H661; first compound 0.8 µM) was 0.899, the relative viability (NCI-H661; first compound 2.53 µM) was 0.869 and the relative viability (NCI-H661; first compound 8 µM) was 0.84. The relative viability (NCI-H727; first compound 0.08 µM) was 0.371, the relative viability (NCI-H727; first compound 0.253 µM) was 0.358 and the relative viability (NCI-H727; first compound 0.8 µM) was 0.312. For the same molecule, the relative viability (NCI-H727; first compound 8 µM) was 0.484, the relative viability (PC-3 [JPC-3]; first compound 0.08 µM) was 0.678 and the relative viability (PC-3 [JPC-3]; first compound 0.253 µM) was 0.667. It also gave a relative viability (PC-3 [JPC-3]; first compound 0.8 µM) of 0.739, a relative viability (PC-3 [JPC-3]; first compound 2.53 µM) of 0.533 and a relative viability (PC-3 [JPC-3]; first compound 8 µM) of 0.895.

From the supplement of paper PMC10307832
